Measured values from ChEMBL document CHEMBL4334529, “Polypropionate Derivatives with Mycobacterium tuberculosis Protein Tyrosine Phosphatase B Inhibitory Activities from the Deep-Sea-Derived Fungus Aspergillus fischeri FS452” (J Nat Prod, 2019).
pIC50, pKi: −log10 of the molar value. Calls of active or inactive are those of the source. The calls are words filed in the database; no cut-off is given here.

Columns and labels:
[1] = system: Candida albicans; test: Antifungal activity against Candida albicans; assay type: functional, organism-based
[2] = molecular target: T1, Phosphotyrosine protein phosphatase (Mycobacterium tuberculosis, UniProt A0A045ISB3); test: Inhibition of Mycobacterium tuberculosis H37Rv ptpB expressed in Escherichia coli BL21 (DH3) cells using 6,8-difluoromethylumbelliferyl phosphate as substrate incubated for 30 mins by fluorescence based assay
T1 sequence (A0A045ISB3 whole entry): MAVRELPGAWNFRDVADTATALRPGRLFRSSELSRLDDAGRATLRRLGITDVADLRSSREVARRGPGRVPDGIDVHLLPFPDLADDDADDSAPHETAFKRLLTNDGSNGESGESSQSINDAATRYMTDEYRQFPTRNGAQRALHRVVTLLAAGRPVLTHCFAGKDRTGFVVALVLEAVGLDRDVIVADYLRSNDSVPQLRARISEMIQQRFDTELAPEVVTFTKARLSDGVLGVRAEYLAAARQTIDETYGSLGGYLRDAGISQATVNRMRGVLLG

[3] = molecular target: T1, Phosphotyrosine protein phosphatase; test: Non-competitive inhibition of Mycobacterium tuberculosis H37Rv ptpB expressed in Escherichia coli BL21 (DH3) cells using p-nitrophenyl phosphate as substrate incubated for 30 mins by Lineweaver-Burk blot analysis

Row | Compound | Activity [1] | pIC50 ([2]; read-out: IC50) | pKi [3] | pIC50 [2]
1 | CC[C@H](COC(C)=O)C[C@H](C)C[C@H](C)C[C@@H](C)/C=C(C)/C=C(/C=C/C=C/C(=O)O)C(=O)O | inactive | 5.40 | 5.28 | 
2 | C/C(=C\[C@H](C)C[C@@H](C)C[C@@H](C)C[C@@H](C)[C@@H](C)O)C(=O)NCCC(=O)O | inactive | < 4.30 |  | 
3 | CC[C@H](C)C[C@H](C)C[C@H](CO)C[C@@H](C)/C=C(C)/C=C(C)\C=C\C=C\C(=O)N1CCCC(O)C1=O (some centres not stated) | inactive | < 4.30 |  | 
4 | CC[C@H](C)C[C@H](C)C[C@@H]1CO[C@@H](/C(C)=C/C(=C\C=C\CC(=O)O)C(=O)O)[C@H](C)C1 | inactive | 5.29 | 5.05 | 
5 | CC[C@H](C)C[C@H](C)C[C@@H]1CO[C@@H](\C(C)=C/C(=C/C=C/CC(=O)O)C(=O)O)[C@H](C)C1 | inactive | 4.92 | 5.15 | 
6 | CC[C@H](C)C[C@H](C)C[C@H](CO)C[C@@H](C)/C=C(C)/C=C(C)/C=C/C=C/C(=O)N1CCCC(O)C1=O (some centres not stated) | inactive | 4.96 | 4.80 | 
7 | CC1(C)CC[C@]2(C(=O)O)CC[C@]3(C)C(=CC[C@@H]4[C@@]5(C)CC[C@H](O)C(C)(C)[C@@H]5CC[C@]43C)[C@@H]2C1 [OLEANOLIC_ACID] |  |  |  | 4.85
